Test results from patent US4992448A, “Benzocycloalkylaminopyridinamines and related compounds as topical antiinflammatory agents for the treatment of skin disorders” (Hoechst-Roussel Pharmaceuticals Inc., priority 1989, dated 1991).

Columns and labels:
porcine pancreatic PLA2 = porcine pancreatic PLA2 (Sus scrofa, UniProt P00592); test: In Vitro Phospholipase A2 Assay (PLA2); format: biochemical; settings: 0.01 M test compound; porcine pancreatic PLA2 (3.2 units), pH 8.0, 37° C.
Procedure: In Vitro Phospholipase A2 Assay (PLA2) The ability of a compound to modulate PLA2 activity (clevage of ^14 -dipalmitoyl phosphotidylcholine at the 2-position to ^14 C-palmitic acid) was quantitated in this assay. […] The reaction was run at 37° C. in a shaking incubator. The reaction was quenched and an internal standard was added in order to determine sample recovery. The samples were loaded onto D18 columns, eluted with ethanol, and the radioactivity was then measured.

[1] = tested on: Phospholipase A2 -induced paw edema; test: Phospholipase A2-induced Paw Edema (PIPE); format: in vivo, male Wistar rats; settings: for PIPE (0.1 M), difference in edema vs. control: 0.1 M test compound injected with PLA2 (3 units/paw), subplantar, rat left hind paw, two hours post administration
Procedure: Phospholipase A2 -induced Paw Edema (PIPE) A2 -induced paw edema in male Wistar rats (100-125 g) was measured. PLA2 (3 units/paw) alone or with 0.1 M of the test compound was injected in the subplantar region of the rat left hind paw. Immediately subsequent to the injection and at two hours post administration the paw was immersed in a mercury bath, and paw displacement was measured on a recorder via a transducer. […] See Giessler, A. J. et. al., Agents and Actions, Vol. 10, Trends in Inflammation Research (1981), p. 195.

[2] = tested on: ear edema induced by topical application of TPA; test: TPA-Induced Ear Edema (TPAEE); format: in vivo, Female Swiss WEbster mice; settings: for TPAEE (10 μg): 10 μg/ear test compound topical, TPA 10 μg/ear, ear punch weight after five hours
Procedure: TPA-Induced Ear Edema (TPAEE) The purpose of this assay was to determine the ability of a topically-applied compound to prevent ear edema induced by topical application of TPA (phorbol 12/myristate acetate). Female Swiss WEbster mice topically received TPA (10μg/ear) on the right ear and vehicle on the left ear. The test compound (10μg/ear) was applied to both ears. After five hours, the animals were sacrificed and an ear punch (4 mm) was taken from each ear. The difference in right and left ear punch weights for each animal was determined to uses activity. […] See Yound, J. M. et. al., J. Invest.

porcine pancreatic PLA2, sequence (P00592 23-146): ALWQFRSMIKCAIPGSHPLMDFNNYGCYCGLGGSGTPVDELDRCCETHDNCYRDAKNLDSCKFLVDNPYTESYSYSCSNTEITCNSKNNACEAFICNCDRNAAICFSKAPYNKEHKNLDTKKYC

Row | SMILES | inhibition at 10000 µM (porcine pancreatic PLA2) | PIPE (0.1 M), difference in edema vs. control [1] | TPAEE (10 μg) [2] | ED50 (PIPE standard) ([1]; standard, PLA2-induced rat paw edema) | ED50 (TPAEE standard) ([2]; standard, TPA-induced mouse ear edema, topical)
1 | Nc1cc[n+]([O-])cc1N1CCc2ccccc2C1 | 59% | -42% | -45% |  | 
2 | Nc1cnccc1N1CCc2ccccc21 [1-(3-Amino-4-pyridinyl)-2,3-dihydro-1H-indole] | 42% | -34% | -74% |  | 
3 | Nc1ccncc1N1CCc2ccccc21 [1-(4-Amino-3-pyridinyl)-2,3-dihydro-1H-indole] | 85% | -33% | -35% |  | 
4 | C[C@]12CCC(=O)C=C1CC[C@@H]1[C@@H]2[C@@H](O)C[C@@]2(C)[C@H]1CC[C@]2(O)C(=O)CO [hydrocortisone, reference compound] |  |  |  | 0.46 M | 47 μg/ear
